Experimental data reported in PubChem BioAssay (NCI).
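Tested at 5 concentrations; 48 h exposure; 96-well plates; endpoints linearly interpolated, else capped at highest concentration. At the GI50, growth is halved. The concentration for full growth arrest is given as TGI.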

How the values were obtained:
Assay in all cases: growth of human tumour cells (NCI), 48 h
786-0 renal = tested on: 786-0 renal
A498 renal = tested on: A498 renal
A549 NSCLC = tested on: A549 NSCLC
ACHN renal = tested on: ACHN renal
BT-549 breast = tested on: BT-549 breast
CAKI-1 renal = tested on: CAKI-1 renal
COLO 205 colon = tested on: COLO 205 colon
DU-145 prostate = tested on: DU-145 prostate
EKVX NSCLC = tested on: EKVX NSCLC
HCC-2998 colon = tested on: HCC-2998 colon
HCT-116 colon = tested on: HCT-116 colon
HCT-15 colon = tested on: HCT-15 colon
HOP-62 NSCLC = tested on: HOP-62 NSCLC
HOP-92 NSCLC = tested on: HOP-92 NSCLC
HT29 colon = tested on: HT29 colon
K-562 leukemia = tested on: K-562 leukemia
KM12 colon = tested on: KM12 colon
M14 melanoma = tested on: M14 melanoma
MCF7 breast = tested on: MCF7 breast
MDA-MB-231 breast = tested on: MDA-MB-231 breast
MDA-MB-435 = tested on: MDA-MB-435
MOLT-4 leukemia = tested on: MOLT-4 leukemia
NCI-H226 lung = tested on: NCI-H226 lung
NCI-H23 lung = tested on: NCI-H23 lung
NCI-H460 lung = tested on: NCI-H460 lung
NCI-H522 lung = tested on: NCI-H522 lung
NCI/ADR-RES ovarian = tested on: NCI/ADR-RES ovarian
OVCAR-4 ovarian = tested on: OVCAR-4 ovarian
OVCAR-5 ovarian = tested on: OVCAR-5 ovarian
PC-3 prostate = tested on: PC-3 prostate
RPMI-8226 leukemia = tested on: RPMI-8226 leukemia
SF-268 CNS = tested on: SF-268 CNS
SF-295 CNS = tested on: SF-295 CNS
SK-MEL-2 melanoma = tested on: SK-MEL-2 melanoma
SK-MEL-28 melanoma = tested on: SK-MEL-28 melanoma
SK-MEL-5 melanoma = tested on: SK-MEL-5 melanoma
SK-OV-3 ovarian = tested on: SK-OV-3 ovarian
SN12C renal = tested on: SN12C renal
SNB-19 CNS = tested on: SNB-19 CNS
SNB-75 CNS = tested on: SNB-75 CNS
SW-620 colon = tested on: SW-620 colon
TK-10 renal = tested on: TK-10 renal
U251 CNS = tested on: U251 CNS
UACC-257 melanoma = tested on: UACC-257 melanoma
UACC-62 melanoma = tested on: UACC-62 melanoma
UO-31 renal = tested on: UO-31 renal
CCRF-CEM leukemia = tested on: CCRF-CEM leukemia
HL-60(TB) leukemia = tested on: HL-60(TB) leukemia
IGROV1 ovarian = tested on: IGROV1 ovarian
MALME-3M melanoma = tested on: MALME-3M melanoma
OVCAR-8 ovarian = tested on: OVCAR-8 ovarian
SF-539 CNS = tested on: SF-539 CNS
SR leukemia = tested on: SR leukemia
T-47D breast = tested on: T-47D breast

S=c1oc(CCCCCCCCc2nn(CNc3ccccc3)c(=S)o2)nn1CNc1ccccc1
TGI (786-0 renal): > 100 µM
TGI (A498 renal): > 100 µM
TGI (A549 NSCLC): > 100 µM
TGI (ACHN renal): > 100 µM
TGI (BT-549 breast): > 100 µM
TGI (CAKI-1 renal): > 100 µM
TGI (COLO 205 colon): > 100 µM
TGI (DU-145 prostate): > 100 µM
TGI (EKVX NSCLC): > 100 µM
TGI (HCC-2998 colon): > 100 µM
TGI (HCT-116 colon): > 100 µM
TGI (HCT-15 colon): > 100 µM
TGI (HOP-62 NSCLC): > 100 µM
TGI (HOP-92 NSCLC): > 100 µM
TGI (HT29 colon): > 100 µM
TGI (K-562 leukemia): > 100 µM
TGI (KM12 colon): > 100 µM
TGI (M14 melanoma): > 100 µM
TGI (MCF7 breast): > 100 µM
TGI (MDA-MB-231 breast): > 100 µM
TGI (MDA-MB-435): > 100 µM
TGI (MOLT-4 leukemia): > 100 µM
TGI (NCI-H226 lung): > 100 µM
TGI (NCI-H23 lung): > 100 µM
TGI (NCI-H460 lung): > 100 µM
TGI (NCI-H522 lung): > 100 µM
TGI (NCI/ADR-RES ovarian): > 100 µM
TGI (OVCAR-4 ovarian): > 100 µM
TGI (OVCAR-5 ovarian): > 100 µM
TGI (PC-3 prostate): > 100 µM
TGI (RPMI-8226 leukemia): > 100 µM
TGI (SF-268 CNS): > 100 µM
TGI (SF-295 CNS): > 100 µM
TGI (SK-MEL-2 melanoma): > 100 µM
TGI (SK-MEL-28 melanoma): > 100 µM
TGI (SK-MEL-5 melanoma): > 100 µM
TGI (SK-OV-3 ovarian): > 100 µM
TGI (SN12C renal): > 100 µM
TGI (SNB-19 CNS): > 100 µM
TGI (SNB-75 CNS): > 100 µM
TGI (SW-620 colon): > 100 µM
TGI (TK-10 renal): > 100 µM
TGI (U251 CNS): > 100 µM
TGI (UACC-257 melanoma): > 100 µM
TGI (UACC-62 melanoma): > 100 µM
TGI (UO-31 renal): > 100 µM

Nc1cc(N)c2nc(-c3ccccc3)c(NCCc3ccc(Cl)c(Cl)c3)nc2c1
GI50 (786-0 renal): 3.13 µM
TGI (786-0 renal): 21.1 µM
GI50 (A498 renal): 11.3 µM
TGI (A498 renal): 23.4 µM
GI50 (A549 NSCLC): 12.6 µM
TGI (A549 NSCLC): 33.1 µM
GI50 (ACHN renal): 3.31 µM
TGI (ACHN renal): 12.4 µM
GI50 (BT-549 breast): 1.56 µM
TGI (BT-549 breast): 13.8 µM
GI50 (CCRF-CEM leukemia): 2.77 µM
TGI (CCRF-CEM leukemia): 12.3 µM
GI50 (DU-145 prostate): 1.63 µM
TGI (DU-145 prostate): 3.63 µM
GI50 (EKVX NSCLC): 3.16 µM
TGI (EKVX NSCLC): 16.2 µM
GI50 (HCC-2998 colon): 5.78 µM
TGI (HCC-2998 colon): 19.7 µM
GI50 (HCT-15 colon): 4.64 µM
TGI (HCT-15 colon): 20 µM
GI50 (HL-60(TB) leukemia): 2.07 µM
TGI (HL-60(TB) leukemia): 5.27 µM
GI50 (HOP-62 NSCLC): 3.92 µM
TGI (HOP-62 NSCLC): 39.8 µM
GI50 (HT29 colon): 3.4 µM
TGI (HT29 colon): 13.2 µM
GI50 (IGROV1 ovarian): 3.38 µM
TGI (IGROV1 ovarian): 15.9 µM
GI50 (K-562 leukemia): 1.87 µM
TGI (K-562 leukemia): 5.29 µM
GI50 (KM12 colon): 2.63 µM
TGI (KM12 colon): 10.5 µM
GI50 (MALME-3M melanoma): 1.85 µM
TGI (MALME-3M melanoma): 4.5 µM
GI50 (MDA-MB-231 breast): 1.3 µM
TGI (MDA-MB-231 breast): 3.89 µM
GI50 (MOLT-4 leukemia): 1.14 µM
TGI (MOLT-4 leukemia): 9.32 µM
GI50 (NCI-H226 lung): 16.5 µM
TGI (NCI-H226 lung): 33.3 µM
GI50 (NCI-H23 lung): 2.81 µM
TGI (NCI-H23 lung): 13.3 µM
GI50 (NCI-H460 lung): 3.21 µM
TGI (NCI-H460 lung): 14.1 µM
GI50 (NCI-H522 lung): 2.11 µM
TGI (NCI-H522 lung): 4.98 µM
GI50 (NCI/ADR-RES ovarian): 3.62 µM
TGI (NCI/ADR-RES ovarian): 18.8 µM
GI50 (OVCAR-5 ovarian): 1.81 µM
TGI (OVCAR-5 ovarian): 4.75 µM
GI50 (OVCAR-8 ovarian): 2.41 µM
TGI (OVCAR-8 ovarian): 6.02 µM
GI50 (PC-3 prostate): 1.01 µM
TGI (PC-3 prostate): 4.29 µM
GI50 (RPMI-8226 leukemia): 0.924 µM
TGI (RPMI-8226 leukemia): 2.91 µM
GI50 (SF-268 CNS): 2.85 µM
TGI (SF-268 CNS): 12.9 µM
GI50 (SF-539 CNS): 2.22 µM
TGI (SF-539 CNS): 10.9 µM
GI50 (SK-MEL-2 melanoma): 10.3 µM
TGI (SK-MEL-2 melanoma): 22.4 µM
GI50 (SK-MEL-28 melanoma): 2.13 µM
TGI (SK-MEL-28 melanoma): 5.88 µM
GI50 (SK-MEL-5 melanoma): 2.32 µM
TGI (SK-MEL-5 melanoma): 7.52 µM
GI50 (SK-OV-3 ovarian): 12.3 µM
TGI (SK-OV-3 ovarian): 24.7 µM
GI50 (SN12C renal): 1.75 µM
TGI (SN12C renal): 3.37 µM
GI50 (SNB-75 CNS): 6.18 µM
TGI (SNB-75 CNS): 33.4 µM
GI50 (SR leukemia): 1.66 µM
TGI (SR leukemia): 7.61 µM
GI50 (SW-620 colon): 1.64 µM
TGI (SW-620 colon): 2.99 µM
GI50 (T-47D breast): 1.8 µM
TGI (T-47D breast): 5.94 µM
GI50 (TK-10 renal): 4.78 µM
TGI (TK-10 renal): 17.5 µM
GI50 (U251 CNS): 2.03 µM
TGI (U251 CNS): 5.32 µM
GI50 (UACC-257 melanoma): 2.06 µM
TGI (UACC-257 melanoma): 4.52 µM
GI50 (UACC-62 melanoma): 2.5 µM
TGI (UACC-62 melanoma): 7.97 µM
GI50 (UO-31 renal): 1.93 µM
TGI (UO-31 renal): 3.97 µM

NC(=O)c1ncn(CC2(COC(=O)c3ccccc3)CCC2)n1
GI50 (BT-549 breast): 82.1 µM
GI50 (SNB-75 CNS): 9.86 µM
TGI (SNB-75 CNS): 92.5 µM
